Test results as given in patent US11814428B2, “Anti-PTCRA antibody-drug conjugates and uses thereof” (REGENERON PHARMACEUTICALS, INC., priority 2019, dated 2023).

Test system: SupT1 cells
Assay: Proliferation of T-ALL cells treated with SRC-family kinase inhibitor
Type: cell-based, human
Settings: PTCRA-dependent T-ALL cell lines

Cc1ccc(-c2nn(C(C)(C)C)c3ncnc(N)c23)cc1 [PP1]
anti-proliferative response: dose-dependent anti-proliferative response
